The source of these data is EP3958980B1, “TARGETED NOVEL TRIAZOLOTHIADIAZINE DERIVATIVES FOR THE TREATMENT OF LUNG CANCER” (Anadolu Universitesi, priority 2020, dated 2021).

Each structure is given as a SMILES string. In brackets after ≈: the same amount, converted by molar mass. Several values for one entry are separate records, joined by “and”; a condition that tells them apart may be missing. Identical values can stand only once.

The inhibition is the change of the read-out against control, counted positive when it falls.

Assay [1] concerns kidney cancer (OU-31) cell line. More on the design: concentration or dose not given beside the values. As to conditions: cited from earlier work.
The subject of assay [2] is A549 cells. As to conditions: cited from earlier work.
For assay [3], the system named is human colon epithelial (HT-29) cells. The following applies: cited from earlier work.
Assay [4] concerns kidney fibroblast (BHK-21) cells. As to conditions: cited from earlier work.
In assay [5] the test system is hepatocellular carcinoma (Hep3 B), human breast adenocarcinoma (MCF-7), human cervical carcinoma (HeLa). The following applies: against all tested cancer cells; cited from earlier work.
The subject of assay [6] is A549 human lung adenocarcinoma cells. Description: MTT assay, in vitro cytotoxic activity on A549. As to conditions: Homo sapiens, A549, 24 hour incubation, read-out: IC50 values (µg/mL) A549 cell line. Format: cell-based. Here is the method:
(§1) The in vitro cytotoxic effects of the compounds were determined with the MTT assay. For this purpose, MTT test was performed using A549 and CCD-19Lu cell lines. After the cell lines used in the invention were centrifuged following taking them out from liquid nitrogen (-196 °C), the cells were cultured in a CO2 incubator comprising 5% CO2 at 37 °C in flasks containing 10% fetal bovine serum (FBS), where CCD-19Lu cells were cultured with Dulbecco's Modified Eagle's Medium (DMEM) and A549 cells were cultured with Roswell Park Memorial Institute (RPMI). The cells that reach the sufficient number for the assay, were seeded to 96 well plates such that 2×10^3 cells were placed in each well and at the same time, components at concentrations of 1-500 µg/mL were added to cells and they were incubated at 37 °C. At the end of the 24 hour incubation period, the MTT powder (5 mg/mL in 1 × phosphate buffered saline (PBS)) was added to each well (20 µL). After a 2-4 h period under the same conditions, the medium was removed from the plate and 100 µL of DMSO was added to each well to dissolve the dye and kept for 10 minutes. Then the plates were read at a wavelength of 540 nm using ELx808-IU Bio-Tek plate reader. The control cell viability which was not treated with the components was accepted to be 100% and the viability rates of the cells were expressed as %. […] According to the results obtained, the dose range was extended until the IC50 value was determined. MTT assay is a frequently used method which measures the cytotoxic effects of the compounds on the cells by converting the yellow colored MTT stain into purple colored formazan crystals via the mitochondrial succinate dehydrogenase activity. In the cytotoxic activity tests of the compounds, A549 lung adenocarcinoma and CCDLu19 normal lung fibroblast cell lines were used.

Assay [7] has as its system CCD-19Lu normal lung fibroblast cells. The assay can be described thus: MTT assay, in vitro cytotoxic activity on CCD-19Lu. Format: cell-based. The following applies: 24 hour incubation; for IC50: Homo sapiens, CCD 19Lu, read-out: IC50 values (µg/mL) CCDLul9 cell line. As to the method:
as §1, with “determined.” for “determined. MTT assay is a frequently used method which measures the cytotoxic effects of the compounds on the cells by converting the yellow colored MTT stain into purple colored formazan crystals via the mitochondrial succinate dehydrogenase activity. In the cytotoxic activity tests of the compounds, A549 lung adenocarcinoma and CCDLu19 normal lung fibroblast cell lines were used.”
MTT assay is a frequently used method which measures the cytotoxic effects of the compounds on the cells by converting the yellow colored MTT stain into purple colored formazan crystals via the mitochondrial succinate dehydrogenase activity. In the cytotoxic activity tests of the compounds, A549 lung adenocarcinoma and CCDLu19 normal lung fibroblast cell lines were used.
A general note: Formazan colour is commonly taken as a measure of viable cells.

Assay [8] concerns Akt. Description: Akt colorimetric in cell ELISA in A549 cells. The following applies: 24 hours. Format: cell-based, human. Here is the method: After 10.000 cells were seeded in the wells, they were kept in the incubator for 24 hours. […] Briefly, the medium was removed from the wells and 100 µL of 4% formaldehyde was added. The plate was incubated in a fume hood for 15 minutes. Formaldehyde was removed and the plate was washed twice with 1X […] (TBS) such as to be 100 µL/well. 1X TBS was removed and 100 µL 1X permeabilization solution was added to each well and it was kept at room temperature for 15 minutes. After the 1X permeabilization solution was removed, the wells were washed with 100 µL 1X TBS once. 1X TBS was removed and 100 µL quenching solution was added to each well and it was kept at room temperature for 20 minutes. Afterwards, this solution was removed. The plate was washed 1 time with 1X TBS and 100 µL blocking solution was added to the wells and it was kept at room temperature for 30 minutes. At the end of this period, the blocking solution was removed and 50 µL primary antibody was added to the wells. The plate was sealed with a cover and it was incubated overnight at 4 °C. The primary antibody was removed and the plate wells were washed 3 times with 100 µL 1X washing solution. After the washing solution was removed, 100 µL diluted horseradish peroxidase (HRP) conjugate was added and it was incubated at room temperature for 30 minutes. Later on this conjugate was removed and 100 µL 3,3',5,5'-tetramethylbenzidine (TMB) […] was added to each well and the absorbance values were read at 450 nm for 30 minutes. The experiment was carried out in triplicate. The values of the blank wells were subtracted from the values of the untreated control and treated cells. The Akt activity% was determined as the relative absorbance of treated versus untreated control cells.

Turning to `O=C(CSc1nnc2n1N=C(c1ccc(Br)cc1)CS2)c1ccc(Br)cc1` [1-(4-bromophenyl)-2-((6-(4-bromophenyl)-7H-[1,2,4]triazolo[3,4-b][1,3,4]thiadiazine-3-yl)thio)ethanone], in assay [1], the growth is on record as 46.76% and the inhibition is 53.24%. Besides, in assay [2], the growth was 58.58% and the inhibition is 41.42%.

In the case of `O=C(CSc1nnc2n1N=C(c1ccc(F)cc1)CS2)c1ccc(F)cc1` [1-(4-fluorophenyl)-2-((6-(4-fluorophenyl)-7H-[1,2,4]triazolo[3,4-b][1,3,4]thiadiazine-3-yl)thio)ethanone], in assay [1], the growth is on record as 47.42% and the inhibition is listed as 52.58%.

For the compound `CS(=O)(=O)c1ccc(Cc2nnc3n2N=C(c2ccccc2)CS3)cc1` [3-(4-(methylsulfonyl)benzyl)-6-phenyl-7H-[1,2,4]triazolo[3,4-b][1,3,4]thiadiazine], the IC50 in assay [3] is 25 µM.

Turning to `Cc1ccc(C2=Nn3c(nnc3-c3ccncc3)SC2)cc1` [3-(pyridine-4-yl)-6-(p-tolyl)-7H-[1,2,4]triazolo[3,4-b][1,3,4]thiadiazine], in assay [4], the inhibition was 72.6%.

Consider `CCCCC/C=C\CC[C@H](O)CCCCCCCc1nnc2n1N=C(c1ccccc1)CS2` [3-[(8R,11Z)-8-hydroxyheptadec-11-enyl]-6-phenyl-7H-1,2,4-triazolo[3,4-b]-1,3,4-thiadiazine], for which the IC50 in assay [5] is less than 8.83 µM.

On to `CCCCCC[C@@H](O)C/C=C\CCCCCCCc1nnc2n1N=C(c1ccccc1)CS2` [3-[(8Z,11R)-11-hydroxyheptadec-8-enyl]-6-phenyl-7H-1,2,4-triazolo[3,4-b]-1,3,4-thiadiazine], for which the IC50 in assay [5] is less than 8.83 µM.

`COc1cccc(C2=Nn3c(nnc3-c3ccncc3)SC2)c1` [6-(3-Methoxyphenyl)-3-(pyridine-4-yl)-7H-[1,2,4]triazolo[3,4-b][1,3,4]thiadiazine]: the inhibition in assay [4] was 73.3%.

Turning to `c1ccc(C2=Nn3c(CCc4ccc5c(c4)OCO5)nnc3SC2)cc1` [Compound 1, 3-[2-(1,3-Benzodioxole-5-yl)ethyl]-6-phenyl-7H-[1,2,4]triazolo[3,4-b][1,3,4]thiadiazine], the IC50 is 103 ± 11.5 µg/mL (≈ 284 µM) in assay [6] and less than 3.9 µg/mL in assay [7].

As to `O=[N+]([O-])c1ccc(C2=Nn3c(CCc4ccc5c(c4)OCO5)nnc3SC2)cc1` [Compound 2, 3-[2-(1,3-Benzodioxole-5-yl)ethyl]-6-(4-nitrophenyl)-7H-[1,2,4]triazolo[3,4-b][1,3,4]thiadiazine], the figures for the IC50 in assay [6] and in assay [7] were 380 ± 70.7 µg/mL (≈ 928 µM) and 3.93 ± 0.06 µg/mL (≈ 9.6 µM), respectively.

Take `N#Cc1ccc(C2=Nn3c(CCc4ccc5c(c4)OCO5)nnc3SC2)cc1` [Compound 3, 3-[2-(1,3-Benzodioxole-5-yl)ethyl]-6-(4-cyanophenyl)-7H-[1,2,4]triazolo[3,4-b] [1,3,4]thiadiazine]: the IC50 in assay [6] and in assay [7] was greater than 500 µg/mL throughout.

In the case of `Fc1ccc(C2=Nn3c(CCc4ccc5c(c4)OCO5)nnc3SC2)cc1` [Compound 4, 3-[2-(1,3-Benzodioxole-5-yl)ethyl]-6-(4-fluorophenyl)-7H-[1,2,4]triazolo[3,4-b] [1,3,4]thiadiazine], the IC50 was 325 ± 35.4 µg/mL (≈ 850 µM) in assay [6] and greater than 500 µg/mL in assay [7].

Turning to `Clc1ccc(C2=Nn3c(CCc4ccc5c(c4)OCO5)nnc3SC2)cc1` [Compound 5, 3-[2-(1,3-Benzodioxole-5-yl)ethyl]-6-(4-chlorophenyl)-7H-[1,2,4]triazolo[3,4-b] [1,3,4]thiadiazine], the results for the IC50 in assay [6] and in assay [7] were greater than 500 µg/mL and less than 3.9 µg/mL, respectively.

On to `Brc1ccc(C2=Nn3c(CCc4ccc5c(c4)OCO5)nnc3SC2)cc1` [Compound 6, 3-[2-(1,3-Benzodioxole-5-yl)ethyl]-6-(4-bromophenyl)-7H-[1,2,4]triazolo[3,4-b] [1,3,4]thiadiazine], for which the IC50 is 307 ± 58.6 µg/mL (≈ 692 µM) in assay [6] and less than 3.9 µg/mL in assay [7].

With `COc1ccc(C2=Nn3c(CCc4ccc5c(c4)OCO5)nnc3SC2)cc1` [Compound 7, 3-[2-(1,3-Benzodioxole-5-yl)ethyl]-6-(4-methoxyphenyl)-7H-[1,2,4]triazolo[3,4-b] [1,3,4]thiadiazine], the IC50 in assay [6] was found to be 45.7 ± 5.51 µg/mL (≈ 116 µM); in assay [7], 44.3 ± 1.15 µg/mL (≈ 112 µM).

For `Cc1ccc(C2=Nn3c(CCc4ccc5c(c4)OCO5)nnc3SC2)cc1` [Compound 8, 3-[2-(1,3-Benzodioxole-5-yl)ethyl]-6-(4-methylphenyl)-7H-[1,2,4] triazolo [3,4-b] [1,3,4]thiadiazine], the IC50 is greater than 500 µg/mL in assay [6] and 14.7 ± 6.43 µg/mL (≈ 38.8 µM) in assay [7].

With `c1ccc2cc(C3=Nn4c(CCc5ccc6c(c5)OCO6)nnc4SC3)ccc2c1` [Compound 10, 3-[2-(1,3-Benzodioxole-5-yl)ethyl]-6-(naphthalene-2-yl)-7H-[1,2,4]triazolo [3,4-b][1,3,4]thiadiazine], the IC50 in assay [6] stood at 4.1 ± 0.14 µg/mL (≈ 9.89 µM). Besides, in assay [7], the “IC50 values (µg/mL) CCDLul9 cell line” value is on record as less than 3.90 µg/mL and the IC50 was less than 3.9 µg/mL.

Take `Clc1cccc(C2=Nn3c(CCc4ccc5c(c4)OCO5)nnc3SC2)c1` [Compound 13, 3-[2-(1,3-Benzodioxole-5-yl)ethyl]-6-(3-chlorophenyl)-7H-[1,2,4]triazolo[3,4-b][1,3,4]thiadiazine]: the IC50 in assay [6] and in assay [7] was greater than 500 µg/mL in each case.

Regarding `c1csc(-c2ccc(C3=Nn4c(CCc5ccc6c(c5)OCO6)nnc4SC3)cc2)c1` [Compound 15, 3-[2-(1,3-Benzodioxole-5-yl)ethyl] -6-(4-(thiophen-2-yl)phenyl)-7H-[1,2,4] triazolo [3,4-b] [1,3,4]thiadiazine], the values for the IC50 in assay [6] and in assay [7] were 4 ± 0.2 µg/mL (≈ 8.96 µM) and less than 3.9 µg/mL, respectively. Besides, in assay [7], the “IC50 values (µg/mL) CCDLul9 cell line” value was less than 3.90 µg/mL.

Regarding `CCn1c(-c2nonc2N)nc2c(C#CC(C)(C)O)ncc(OC[C@H]3CCCNC3)c21` [GSK690693, reference compound], the IC50 in assay [6] turned out to be 6.75 ± 1.06 µg/mL (≈ 15.9 µM). Further, the “Akt Inhibition%” value in assay [8] (IC50/2 concentration (9: 2.88; 11: 0.37; 12: 0.40; 14: 1.32; GSK690693: 3.34; Cisplatin: 11.50 µg/mL)) is 60.56±3.04%; in assay [8] (IC50/4 concentration (9: 1.44; 11: 0.18; 12: 0.20; 14: 0.66; GSK690693: 1.69; Cisplatin: 5.75 µg/mL)), 59.23±9.77%; in assay [8] (IC50 concentration (9: 5.75; 11: 0.73; 12: 0.80; 14: 2.63; GSK690693: 6.75; Cisplatin: 23.00 µg/mL)) it was 61.67% and 61.67±1.21%.
